Measured values: patent publication US8080660B2, “Metal complex glycogen synthase kinase 3 inhibitors” (The Trustees Of The University Of Pennsylvania, priority 2004, dated 2011)

Biological target: T1, GSK-3α (Homo sapiens, UniProt P49840)
T1 construct: purchased Upstate Biotechnology USA
Experiment: GSK-3α kinase inhibition assay ([γ-32P]ATP phosphorylation of substrate)
Format: biochemical
Conditions: 20 μM ATP
Experimental: Protein kinases and substrates were purchased from Upstate Biotechnology USA, except for poly(Glu-Tyr 4:1) which was obtained from Sigma-Aldrich.
After 15 mins, the reaction was initiated by adding ATP to a final concentration of 20 μM, including approximately 0.04 μCi/μl [γ-^32P]ATP. Reactions were performed in a total volume of 25 μl. After 30 min, the reaction was terminated by spotting 17.5 μl on a circular P81 phosphocellulose paper (diameter 2.1 cm, Whatman) followed by washing four times (five minutes each wash) with 0.75% phosphoric acid and once with acetone. The dried P81 papers were transferred to a scintillation vial and 5 ml of scintillation cocktail were added and the counts per minute (CPM) determined with a Beckmann 6000 scintillation counter.

T1 sequence (P49840 whole entry): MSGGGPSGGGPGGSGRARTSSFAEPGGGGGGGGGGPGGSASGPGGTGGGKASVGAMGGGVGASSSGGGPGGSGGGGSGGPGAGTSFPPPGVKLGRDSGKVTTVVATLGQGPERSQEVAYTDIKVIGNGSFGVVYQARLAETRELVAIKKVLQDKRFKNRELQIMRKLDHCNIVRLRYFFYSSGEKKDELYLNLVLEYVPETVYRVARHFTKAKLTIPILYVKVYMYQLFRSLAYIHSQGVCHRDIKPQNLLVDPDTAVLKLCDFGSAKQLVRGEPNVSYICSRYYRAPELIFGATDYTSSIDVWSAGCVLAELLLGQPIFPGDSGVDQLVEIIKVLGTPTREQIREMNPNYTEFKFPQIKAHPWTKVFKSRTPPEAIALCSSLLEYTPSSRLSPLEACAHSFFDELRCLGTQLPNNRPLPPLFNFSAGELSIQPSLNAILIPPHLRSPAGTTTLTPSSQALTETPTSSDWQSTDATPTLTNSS

- IC50: 50 µM
SMILES: O=C1NC(=O)c2c1c1cccnc1c1[nH]c3ccccc3c21 [Compound 4]
